Measured values from patent publication US12037324B2, “Biarylmethyl heterocycles” (Université de Montréal, priority 2016, dated 2024).

Legend:
AGTR1 [1] = biological target: T1, AGTR1 (Homo sapiens, UniProt P30556); assay: DiscoveRx β-arrestin2 recruitment assay (enzyme complementation, Pathunter CHO-K1 AGTR1 β-arrestin cell line); type: cell-based; conditions: for DiscoveRx β-arrestin2 Ymax (%): maximal response
T1 construct: host or cells: Pathunter CHO-K1 AGTR1 β-arrestin cell line (CHO-K1)
T1 sequence (P30556 1-359): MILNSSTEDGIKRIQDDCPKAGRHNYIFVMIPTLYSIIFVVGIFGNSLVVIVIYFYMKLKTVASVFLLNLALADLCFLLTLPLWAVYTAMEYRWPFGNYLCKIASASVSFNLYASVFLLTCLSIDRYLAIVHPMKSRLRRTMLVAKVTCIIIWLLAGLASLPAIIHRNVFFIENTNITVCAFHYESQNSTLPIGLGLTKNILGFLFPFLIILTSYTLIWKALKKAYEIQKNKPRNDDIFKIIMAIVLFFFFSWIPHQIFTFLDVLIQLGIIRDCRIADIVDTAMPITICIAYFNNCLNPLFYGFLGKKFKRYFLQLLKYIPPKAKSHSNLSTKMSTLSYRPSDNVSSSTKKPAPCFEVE
Method in brief: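 Chemiluminescent enzyme-complementation read-out of β-arrestin2 recruitment to AGTR1 in engineered CHO-K1 cells after 90 min compound exposure at 37° C. Values are 4-parameter logistic EC50s in agonist mode, IC50s in antagonist mode, with efficacy relative to the maximal All response.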

hAT1R [2] = biological target: T2, hAT1R (Homo sapiens, UniProt P30556); assay: cell-based
T2 sequence (P30556 1-359): T1 sequence (P30556 1-359)

AGTR1 [3] = biological target: T1, AGTR1; assay: DiscoveRx IP1 accumulation assay (HTRF), agonist mode, Pathunter CHO-K1 AGTR1 β-arrestin cell line; type: cell-based; conditions: for EC50: read-out: IP-1 EC50
Method in brief: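 Agonist mode in CHO-K1 AGTR1 β-arrestin cells plated 14-16 h before; compounds at varying concentrations for 90 min at 37° C, IP1 accumulation read by HTRF (D2-conjugate and anti-IP1 cryptate, 20 min room temperature). EC50 from 4-parameter logistic fit; activity given as percentage of maximal AII effect.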

hAT1R [4] = biological target: T2, hAT1R; assay: BRET β-arrestin2 biosensor assay, higher receptor expression (hAT1R 5 ng/well), HEK293 cells; type: cell-based; conditions: for EC50: High AT1R Expression
[5] = DiscoveRx β-arrestin2 recruitment
[6] = Low AT1R Expression, read-out: BRET β-Arrestin2 Low AT1R Expression EC50
[7] = section of the 42nd table ending at r951, example numbering restarts after the DiscoveRx section, read-out: β-arrestin2 EC50

CCCCC1=NC2(CCOC2)C(=O)N1Cc1ccc(-c2cc(-c3ccccc3F)ccc2-c2nnn[nH]2)cc1 (single isomer, unassigned) [Example 148]
EC50 (AGTR1 [1]; [5]): 103 nM | DiscoveRx β-arrestin2 Ymax (%) (AGTR1 [1]; [5]): 34.8% | BRET β-Arrestin2 Low AT1R Expression Ymax (%) (hAT1R [2]; Low AT1R Expression): 17.7% | EC50 (hAT1R [2]; [6]): 141 nM | IP-1 Ymax (%) (AGTR1 [3]): 6.1% | BRET β-Arrestin2 High AT1R Expression Ymax (%) (hAT1R [4]): 72.8% | EC50 (hAT1R [4]): 90.4 nM

CCCCC1=NC2(CCOC2)C(=O)N1Cc1ccc(-c2cc(-c3ccccc3F)ccc2-c2nnn[nH]2)cc1 (single isomer, unassigned) [Example 149]
EC50 (AGTR1 [1]; [5]): 38.9 nM | DiscoveRx β-arrestin2 Ymax (%) (AGTR1 [1]; [5]): 55.2% | BRET β-Arrestin2 Low AT1R Expression Ymax (%) (hAT1R [2]; Low AT1R Expression): 42.1% | EC50 (hAT1R [2]; [6]): 82.7 nM | IP-1 Ymax (%) (AGTR1 [3]): 7.5% | EC50 (AGTR1 [3]): 143 nM | BRET β-Arrestin2 High AT1R Expression Ymax (%) (hAT1R [4]): 85.7% | EC50 (hAT1R [4]): 24.1 nM

CCc1nc2c(C)cc(C)nc2n1Cc1ccc(-c2cc(-c3ccccc3OC(F)(F)F)ccc2-c2nn[nH]n2)cc1 [Example 1]
EC50 (AGTR1 [1]; [5]): 15.5 nM | DiscoveRx β-arrestin2 Ymax (%) (AGTR1 [1]; [5]): 44.1% | BRET β-Arrestin2 Low AT1R Expression Ymax (%) (hAT1R [2]; Low AT1R Expression): 61.8% | EC50 (hAT1R [2]; [6]): 29.5 nM | IP-1 Ymax (%) (AGTR1 [3]): 18.7% | EC50 (AGTR1 [3]): 20.7 nM | BRET β-Arrestin2 High AT1R Expression Ymax (%) (hAT1R [4]): 86.9% | EC50 (hAT1R [4]): 7.2 nM

CCc1nc2c(C)cc(C)nc2n1Cc1ccc(-c2cc(-c3ccccc3C(C)C)ccc2-c2nn[nH]n2)cc1 [Example 3]
EC50 (AGTR1 [1]; [5]): 21.2 nM | DiscoveRx β-arrestin2 Ymax (%) (AGTR1 [1]; [5]): 22.9% | BRET β-Arrestin2 Low AT1R Expression Ymax (%) (hAT1R [2]; Low AT1R Expression): 30.6% | EC50 (hAT1R [2]; [6]): 24.2 nM | IP-1 Ymax (%) (AGTR1 [3]): 29.9% | EC50 (AGTR1 [3]): 45600 nM | BRET β-Arrestin2 High AT1R Expression Ymax (%) (hAT1R [4]): 79.6% | EC50 (hAT1R [4]): 14.9 nM

CCc1nc2c(C)cc(C)nc2n1Cc1ccc(-c2cc(-c3ccccc3OC)ccc2-c2nn[nH]n2)cc1 [Example 5]
EC50 (AGTR1 [1]; [5]): 14.5 nM | DiscoveRx β-arrestin2 Ymax (%) (AGTR1 [1]; [5]): 30.9% | BRET β-Arrestin2 Low AT1R Expression Ymax (%) (hAT1R [2]; Low AT1R Expression): 22.9% | EC50 (hAT1R [2]; [6]): 12.1 nM | IP-1 Ymax (%) (AGTR1 [3]): 15.1% | EC50 (AGTR1 [3]): 23.8 nM | BRET β-Arrestin2 High AT1R Expression Ymax (%) (hAT1R [4]): 76.2% | EC50 (hAT1R [4]): 16 nM

CCc1nc2c(C)cc(C)nc2n1Cc1ccc(-c2cc(-c3ccc(C(=O)N(C)C)cc3)ccc2-c2nn[nH]n2)cc1 [Example 11]
EC50 (AGTR1 [1]; [5]): 9.9 nM | DiscoveRx β-arrestin2 Ymax (%) (AGTR1 [1]; [5]): 36.3% | BRET β-Arrestin2 Low AT1R Expression Ymax (%) (hAT1R [2]; Low AT1R Expression): 16.9% | EC50 (hAT1R [2]; [6]): 35.3 nM | IP-1 Ymax (%) (AGTR1 [3]): 3.8% | EC50 (AGTR1 [3]): 17.8 nM | BRET β-Arrestin2 High AT1R Expression Ymax (%) (hAT1R [4]): 79.2% | EC50 (hAT1R [4]): 22 nM

CCc1nc2c(C)cc(C)nc2n1Cc1ccc(-c2cc(-c3ccccc3F)ccc2-c2nn[nH]n2)cc1 [Example 19]
EC50 (AGTR1 [1]; [5]): 7.5 nM | DiscoveRx β-arrestin2 Ymax (%) (AGTR1 [1]; [5]): 57.9% | BRET β-Arrestin2 Low AT1R Expression Ymax (%) (hAT1R [2]; Low AT1R Expression): 73.7% | EC50 (hAT1R [2]; [6]): 12.1 nM | IP-1 Ymax (%) (AGTR1 [3]): 12.2% | EC50 (AGTR1 [3]): 27.4 nM | BRET β-Arrestin2 High AT1R Expression Ymax (%) (hAT1R [4]): 89.8% | EC50 (hAT1R [4]): 2.4 nM

CCc1nc2c(C)cc(C)nc2n1Cc1ccc(-c2cc(-n3ccc(C(F)(F)F)n3)ccc2-c2nnn[nH]2)cc1 [Example 219]
EC50 (AGTR1 [1]; [5]): 35.2 nM | DiscoveRx β-arrestin2 Ymax (%) (AGTR1 [1]; [5]): 21.6% | EC50 (hAT1R [2]; [7]): 33.2 nM | IP-1 Ymax (%) (AGTR1 [3]): 6.9% | EC50 (AGTR1 [3]): 117 nM

Cc1ccnc(-c2ccc(-c3nn[nH]n3)c(-c3ccc(Cn4nc(C)nc4C)cc3)c2)c1 [Example 458, 2-(4′-((3,5-Dimethyl-1H-1,2,4-triazol-1-yl)methyl)-6-(2H-tetrazol-5-yl)-[1,1′-biphenyl]-3-yl)-4-methylpyridine]
EC50 (AGTR1 [1]): 253 nM | EC50 (hAT1R [2]; [7]): 385 nM

Cc1cnn(-c2ccc(-c3nn[nH]n3)c(-c3ccc(Cn4cnnc4C)cc3)c2)c1 [Example 459, 5-(5-(4-Methyl-1H-pyrazol-1-yl)-4′-((3-methyl-4H-1,2,4-triazol-4-yl)methyl)-[1,1′-biphenyl]-2-yl)-2H-tetrazole]
EC50 (AGTR1 [1]): > 10000 nM | EC50 (hAT1R [2]; [7]): 1240 nM
